# Results published in patent publication US6197760A (priority 2000, dated 2001).
# “Also recorded” adds a separate entry of the source.
# Experiments:
# P388 leukemia = tested on: P388 leukemia; set-up: species or system murine; conditions: mouse, in vivo; for 45-Day Surv/Total / % ILS / Approx. Net Log10 Change In Tumor Burden at End of Rx / Median Day of Death: ip, 100 mg/kg
# M5076 sarcoma = experiment: Response of s.c. implanted M5076 sarcoma (Table 4); assay type: in vivo, murine
# Method: Response of S.C. Implanted M5076 Sarcoma to Treatment with
# The compounds were injected i.p. daily on days 11-15.
# mammary tumor 16/C = tested on: mammary tumor 16/C; set-up: species or system murine; conditions: mouse, in vivo
# [1] = tested on: MCF-7 mammary tumor xenograft; set-up: species or system human; conditions: in vivo; for Days delay (T-C): sc
# [2] = tested on: MX-1 mammary tumor xenograft; assay type: in vivo, human; conditions: experiment analogous to MCF-7
# [3] = tested on: experimental leukemias and solid tumors; set-up: species or system mice and rats; conditions: in vivo
# [4] = tested on: mixedfunction oxidase activities (cytochrome P-450, aryl hydrocarbon hydroxylase, aminopyrinedemethylase); glutathione; conditions: cited from earlier work
# [5] = metabolite of CPA; cited from earlier work
# HeLa cells = conditions: in vitro; cited from earlier work
# [6] = 18 mg/kg i.p. daily on days 11-15
# [7] = 27 mg/kg i.p. daily on days 11-15
# [8] = 40 mg/kg i.p. daily on days 11-15
Compound,45-Day Surv/Total (P388 leukemia),% ILS (P388 leukemia),Approx. Net Log10 Change In Tumor Burden at End of Rx (P388 leukemia),Median Day of Death (P388 leukemia),Days delay (T-C) [1],cytotoxicity to HeLa cells (HeLa cells),also measured
CS(=O)(=O)OCCNP(=O)(O)NCCCl [CM-IPM],0/5,+82,-6.1,20.0,> 39.7,,"log cell kill (P388 leukemia): 6.1 log; Days delay (T-C) (M5076 sarcoma; [6]): 2.3 days; Days to 2 Doublings (M5076 sarcoma; [6]): 11.6 days; Tumor-free Surv/Total (M5076 sarcoma; [6]): 0/6; Days delay (T-C) (M5076 sarcoma; [7]): 12.2 days; Days to 2 Doublings (M5076 sarcoma; [7]): 21.5 days; Tumor-free Surv/Total (M5076 sarcoma; [7]): 0/6; Days delay (T-C) (M5076 sarcoma; [8]): 23.2 days; Days to 2 Doublings (M5076 sarcoma; [8]): 32.5 days; Tumor-free Surv/Total (M5076 sarcoma; [8]): 0/6; days T-C (M5076 sarcoma; Table 4, dose not given): 23.2 days; tumor response / comparative activity vs. 16/C (mammary tumor 16/C): superior to the clinical drugs CPA and Ifos and to MM-IPM; also recorded: comparable to BM-IPM vs. 16/C mammary tumor, and superior to CPA and Ifos vs. 16/C tumor; comparative activity vs. MCF-7 [1]: equal in activity to Ifos, slightly superior to IPM and melphalan (the positive control) and significantly superior to CPA and all of the other analogs; also recorded: superior to MM-IPM, BC-IPM and CPA, slightly more active than IPM, and equally active to Ifos; activity vs. MX-1 [2]: only modest activity; also recorded: modestly active relative to CPA and Ifos; comparative activity vs. three experimental leukemias and solid tumors [3]: superior to IPM and other IPM analogs, including MM-IPM, vs. all three tumors"
CS(=O)(=O)OCCNP(=O)(O)NCCF [FM-IPM],0/5,+10,-1.4,13.0,,,
C=CC=O [acrolein],,,,,,,liver toxicity [4]: glutathione depletion and destruction of mixedfunction oxidase activities; teratogenicity [5]: teratogenic
O=P(O)(NCCBr)NCCBr [BB-IPM],,,,,1.7,cytotoxic to HeLa cells in vitro,
CS(=O)(=O)OCCCNP(=O)(O)NCCCl [CM3-IPM],0/5,+9,-0.7,12.0,,,
O=P(O)(NCCCl)NCCBr [BC-IPM],,,,,5.8,cytotoxic to HeLa cells in vitro,
